Consider four compounds from ChEMBL document CHEMBL4819052, “Structure-Based Approaches to Improving Selectivity through Utilizing Explicit Water Molecules: Discovery of Selective β-Secretase (BACE1) Inhibitors over BACE2” (J Med Chem, 2021).

This series can be described thus: Dissociation constant, pKa of compound by capillary electrophoresis. It is filed as physicochemical.
The compound `CC#C[C@@]1(c2cc(NC(=O)c3ccc(C#N)cn3)ccc2F)CCOC(N)=N1` gave a pKa of 8.3.

For the compound `CC#C[C@]1(c2cc(NC(=O)c3cnc(OCF)cn3)ccc2F)N=C(N)OCC12CC(F)(F)C2`, the pKa was 7.5.

Consider `CC#C[C@@]1(c2cc(NC(=O)c3cnc(OCF)cn3)ccc2F)CCOC(N)=N1`, for which the pKa is 8.4.

Consider `CC#C[C@]1(c2cc(NC(=O)c3cnc(OCF)cn3)ccc2F)N=C(N)OC[C@@H]1F`, for which the pKa is 6.5.

By pKa is commonly meant the negative logarithm of the acid dissociation constant.
